Patent US6951651B2, “CTL epitope analogs” (priority 1999, dated 2005)
Ends that are not written are not given here.

Legend:
T cell clone 3-3F4 = test: Chromium release assay, peptide-sensitized targets lysed by T cell clone 3-3F4; format: cell-based, human; details: for Conc. (nM): concentration of peptide in which specific killing was between 15 and 30 percent: HLA A*0201-restricted EBVLCL targets, 3-3F4 effectors, E:T=5, 10-fold dilutions 500-0.00005 nM; for recognition by T cell clone 3-3F4 (in words): chromium release assay; for Peptide Concentration (nM), Free Acid, 3-3F4 / Peptide Concentration (nM), Amide, 3-3F4: chromium release, T cell clone 3-3F4; for Peptide Concentration (nM), Amide, 3-3F4: carboxyl terminal amide peptide
Procedure: Nonamer peptides with the substitutions as shown at each position were synthesized as described in Example 1. […] Results of these assays are shown in the right-hand column of Table II, in terms of concentration of peptide (nM) in which specific killing was between 15 and 30 percent. Results presented are the average from at least three independent experiments carried out on different days using different batches of T cell […]. Peptides were tested using 10-fold dilutions, ranging from 500-0.00005 nM.
(§1) To take advantage of the increased immunogenicity of peptides 44 and 46, while maintaining the universal recognition of the native peptide, library-directed changes were made to peptides 44 and 46, substituting back the native amino acids. A series of 21 peptides were constructed based upon the sequence of the tetra-substituted peptides 44 and 46 in each of the carboxyl terminal amidated and free acid forms. The peptides contained single, double, or triple substitutions of amino acids of the native sequence at the positions indicated. These peptides were assayed utilizing a standard chromium release assay with the screening T cell clone, 3-3F4, and a representative T cell clone (VB57) from another individual expressing a different T cell receptor.

T cell clone VB57 = test: Chromium release assay, peptide-sensitized targets lysed by T cell clone VB57; format: cell-based, human; details: for Peptide Concentration (nM), Amide, VB57: carboxyl terminal amide peptide
Text: as §1

Row | Substance | Conc. (nM): concentration of peptide in which specific killing was between 15 and 30 percent (T cell clone 3-3F4) | Peptide Concentration (nM), Free Acid, 3-3F4 (T cell clone 3-3F4) | Peptide Concentration (nM), Amide, 3-3F4 (T cell clone 3-3F4) | Peptide Concentration (nM), Amide, VB57 (T cell clone VB57) | also measured
1 | 45N: nonamer YLLPMVVPV amide, SEQ ID NO 28 (YLLPMVVPV-NH2) [Peptide 45N] | >500 nM | – | – | – | recognition by T cell clone 3-3F4 (in words) (T cell clone 3-3F4): less active than the native sequence
2 | 47N: nonamer YLLPMVTPV amide, SEQ ID NO 23 (YLLPMVTPV-NH2) [Peptide 47N] | 500 nM | – | – | – | recognition by T cell clone 3-3F4 (in words) (T cell clone 3-3F4): less active than the native sequence
3 | 48N: nonamer YLLPYVVSV amide, SEQ ID NO 29 (YLLPYVVSV-NH2) [Peptide 48N] | >500 nM | – | – | – | –
4 | 49N: nonamer YLLPYVVPV amide, SEQ ID NO 30 (YLLPYVVPV-NH2) [Peptide 49N] | >500 nM | – | – | – | –
5 | 50N: nonamer YLLPYVTSV amide, SEQ ID NO 31 (YLLPYVTSV-NH2) [Peptide 50N] | >500 nM | – | – | – | –
6 | 51N: nonamer YLLPYVTPV amide, SEQ ID NO 32 (YLLPYVTPV-NH2) [Peptide 51N] | >500 nM | – | – | – | –
7 | 52N: nonamer YLLWMVVSV amide, SEQ ID NO 24 (YLLWMVVSV-NH2) [Peptide 52N] | 500 nM | – | – | – | –
8 | 53N: nonamer YLLWMVVPV amide, SEQ ID NO 25 (YLLWMVVPV-NH2) [Peptide 53N] | 500 nM | – | – | – | –
9 | 54N: nonamer YLLWMVTSV amide, SEQ ID NO 21 (YLLWMVTSV-NH2) [Peptide 54N] | 0.5 nM | – | – | – | –
10 | 55N: nonamer YLLWMVTPV amide, SEQ ID NO 26 (YLLWMVTPV-NH2) [Peptide 55N] | 500 nM | – | – | – | –
11 | 56N: nonamer YLLWYVVSV amide, SEQ ID NO 22 (YLLWYVVSV-NH2) [Peptide 56N] | 50 nM | – | – | – | –
12 | 57N: nonamer YLLWYVVPV amide, SEQ ID NO 33 (YLLWYVVPV-NH2) [Peptide 57N] | >500 nM | – | – | – | –
13 | 58N: nonamer YLLWYVTSV amide, SEQ ID NO 27 (YLLWYVTSV-NH2) [Peptide 58N] | 500 nM | – | – | – | –
14 | 59N: nonamer YLLWYVTPV amide, SEQ ID NO 34 (YLLWYVTPV-NH2) [Peptide 59N] | >500 nM | – | – | – | –
15 | 110C: nonamer NLVPMVVTV, SEQ ID NO 42 (NLVPMVVTV-OH) [Peptide 110C] | – | 0.5 nM | – | – | –
16 | 110N: nonamer NLVPMVVTV amide, SEQ ID NO 41 (NLVPMVVTV-NH2) [Peptide 110N] | – | – | 0.05 nM | >5 nM | –
17 | 111C: nonamer NLVPMVTTV, SEQ ID NO 44 (HCMV vaccine peptide) [Peptide 111C] | – | 0.05 nM | – | – | recognition by T cell clone 3-3F4 (in words) (T cell clone 3-3F4): equivalent to its amidated counterpart; Peptide Concentration (nM), Free Acid, VB57 (T cell clone VB57): 5 nM
18 | 111N: nonamer NLVPMVTTV amide, SEQ ID NO 43 (NLVPMVTTV-NH2) [Peptide 111N] | – | – | 0.05 nM | >5 nM | –
19 | 112C: nonamer NLVPMVASV, SEQ ID NO 46 (NLVPMVASV-OH) [Peptide 112C] | – | 5 nM | – | – | Peptide Concentration (nM), Free Acid, VB57 (T cell clone VB57): 0.5 nM
20 | 112N: nonamer NLVPMVASV amide, SEQ ID NO 45 (NLVPMVASV-NH2) [Peptide 112N] | – | – | 0.5 nM | 0.5 nM | –
21 | 113C: nonamer YLVPMVVTV, SEQ ID NO 60 (YLVPMVVTV-OH) [Peptide 113C] | – | >5 nM | – | – | –
22 | 113N: nonamer YLVPMVVTV amide, SEQ ID NO 59 (YLVPMVVTV-NH2) [Peptide 113N] | – | – | 0.5 nM | >5 nM | –

Row | Substance | Conc. (nM): concentration of peptide in which specific killing was between 15 and 30 percent (T cell clone 3-3F4) | Peptide Concentration (nM), Free Acid, 3-3F4 (T cell clone 3-3F4) | Peptide Concentration (nM), Amide, 3-3F4 (T cell clone 3-3F4) | Peptide Concentration (nM), Amide, VB57 (T cell clone VB57) | also measured
23 | 114C: nonamer YLVPMVTTV, SEQ ID NO 62 (YLVPMVTTV-OH) [Peptide 114C] | – | 0.5 nM | – | – | Peptide Concentration (nM), Free Acid, VB57 (T cell clone VB57): 5 nM
24 | 114N: nonamer YLVPMVTTV amide, SEQ ID NO 61 (YLVPMVTTV-NH2) [Peptide 114N] | – | – | 0.05 nM | 5 nM | –
25 | 116C: nonamer NLLPMVVTV, SEQ ID NO 48 (NLLPMVVTV-OH) [Peptide 116C] | – | >5 nM | – | – | –
26 | 116N: nonamer NLLPMVVTV amide, SEQ ID NO 47 (NLLPMVVTV-NH2) [Peptide 116N] | – | – | 0.5 nM | >5 nM | –
27 | 117C: nonamer NLLPMVTTV, SEQ ID NO 50 (NLLPMVTTV-OH) [Peptide 117C] | – | 0.5 nM | – | – | Peptide Concentration (nM), Free Acid, VB57 (T cell clone VB57): 5 nM
28 | 117N: nonamer NLLPMVTTV amide, SEQ ID NO 49 (NLLPMVTTV-NH2) [Peptide 117N] | – | – | 0.05 nM | >5 nM | –
29 | 119C: nonamer NLVPMVVSV, SEQ ID NO 54 (NLVPMVVSV-OH) [Peptide 119C] | – | >5 nM | – | – | Peptide Concentration (nM), Free Acid, VB57 (T cell clone VB57): >5 nM
30 | 119N: nonamer NLVPMVVSV amide, SEQ ID NO 53 (NLVPMVVSV-NH2) [Peptide 119N] | – | – | 0.005 nM | >5 nM | –
31 | 120C: nonamer NLVPMVTSV, SEQ ID NO 56 (NLVPMVTSV-OH) [Peptide 120C] | – | 5 nM | – | – | Peptide Concentration (nM), Free Acid, VB57 (T cell clone VB57): >5 nM
32 | 120N: nonamer NLVPMVTSV amide, SEQ ID NO 55 (NLVPMVTSV-NH2) [Peptide 120N] | – | – | 0.05 nM | >5 nM | –
33 | 121C: nonamer YLLPMVVTV, SEQ ID NO 74 (YLLPMVVTV-OH) [Peptide 121C] | – | >5 nM | – | – | –
34 | 121N: nonamer YLLPMVVTV amide, SEQ ID NO 73 (YLLPMVVTV-NH2) [Peptide 121N] | – | – | 5 nM | >5 nM | –
35 | 122C: nonamer YLLPMVTTV, SEQ ID NO 76 (YLLPMVTTV-OH) [Peptide 122C] | – | >5 nM | – | – | Peptide Concentration (nM), Free Acid, VB57 (T cell clone VB57): >5 nM
36 | 122N: nonamer YLLPMVTTV amide, SEQ ID NO 75 (YLLPMVTTV-NH2) [Peptide 122N] | – | – | 5 nM | >5 nM | –
37 | 123C: nonamer YLLPMVASV, SEQ ID NO 78 (YLLPMVASV-OH) [Peptide 123C] | – | >5 nM | – | – | Peptide Concentration (nM), Free Acid, VB57 (T cell clone VB57): >5 nM
38 | 123N: nonamer YLLPMVASV amide, SEQ ID NO 77 (YLLPMVASV-NH2) [Peptide 123N] | – | – | 0.05 nM | 0.5 nM | –
39 | 124C: nonamer YLVPMVVSV, SEQ ID NO 70 (YLVPMVVSV-OH) [Peptide 124C] | – | >5 nM | – | – | Peptide Concentration (nM), Free Acid, VB57 (T cell clone VB57): >5 nM
40 | 124N: nonamer YLVPMVVSV amide, SEQ ID NO 69 (YLVPMVVSV-NH2) [Peptide 124N] | – | – | 0.5 nM | 5 nM | –
41 | 125C: nonamer YLVPMVTSV, SEQ ID NO 72 (YLVPMVTSV-OH) [Peptide 125C] | – | >5 nM | – | – | Peptide Concentration (nM), Free Acid, VB57 (T cell clone VB57): >5 nM
42 | 125N: nonamer YLVPMVTSV amide, SEQ ID NO 71 (YLVPMVTSV-NH2) [Peptide 125N] | – | – | 0.05 nM | >5 nM | –
43 | 126C: nonamer NLLPMVVSV, SEQ ID NO 66 (NLLPMVVSV-OH) [Peptide 126C] | – | 5 nM | – | – | Peptide Concentration (nM), Free Acid, VB57 (T cell clone VB57): >5 nM
44 | A7N: native sequence NLVPMVATV with amidated carboxyl terminus, SEQ ID NO 18 (NLVPMVATV-NH2) [Peptide A7N] | 0.5 nM | – | – | – | –
